Columns and labels:
[1] = target: T1, 5-HT6 (Homo sapiens, UniProt P50406); test: GPCR Profiler; type: cell-based
T1 construct: host or cells: Chem-1 cells with promiscuous Gα15

[2] = target: T2, MEK1 (Homo sapiens, UniProt Q02750); test: KinomeScan; type: binding; settings: read-out: % Control
T2 construct: purchased DiscoveRx (Fremont, CA)

[3] = target: T3, ABL1-nonphosphorylated (Homo sapiens, UniProt P00519); test: KinomeScan; type: binding; settings: read-out: % Control
T3 construct: purchased DiscoveRx
T3 sequence (P00519 242-493 limits assumed): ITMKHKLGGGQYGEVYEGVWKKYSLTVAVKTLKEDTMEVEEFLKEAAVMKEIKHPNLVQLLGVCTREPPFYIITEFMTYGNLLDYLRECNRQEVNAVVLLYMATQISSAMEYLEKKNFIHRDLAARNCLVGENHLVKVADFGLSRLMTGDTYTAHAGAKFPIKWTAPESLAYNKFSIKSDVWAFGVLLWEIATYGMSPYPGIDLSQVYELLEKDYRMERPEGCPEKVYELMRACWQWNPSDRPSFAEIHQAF

[4] = target: T4, GRK7 (Homo sapiens, UniProt Q8WTQ7); test: KinomeScan; type: binding; settings: read-out: % Control
T4 construct: purchased DiscoveRx (Fremont, CA)
T4 sequence (Q8WTQ7 whole entry): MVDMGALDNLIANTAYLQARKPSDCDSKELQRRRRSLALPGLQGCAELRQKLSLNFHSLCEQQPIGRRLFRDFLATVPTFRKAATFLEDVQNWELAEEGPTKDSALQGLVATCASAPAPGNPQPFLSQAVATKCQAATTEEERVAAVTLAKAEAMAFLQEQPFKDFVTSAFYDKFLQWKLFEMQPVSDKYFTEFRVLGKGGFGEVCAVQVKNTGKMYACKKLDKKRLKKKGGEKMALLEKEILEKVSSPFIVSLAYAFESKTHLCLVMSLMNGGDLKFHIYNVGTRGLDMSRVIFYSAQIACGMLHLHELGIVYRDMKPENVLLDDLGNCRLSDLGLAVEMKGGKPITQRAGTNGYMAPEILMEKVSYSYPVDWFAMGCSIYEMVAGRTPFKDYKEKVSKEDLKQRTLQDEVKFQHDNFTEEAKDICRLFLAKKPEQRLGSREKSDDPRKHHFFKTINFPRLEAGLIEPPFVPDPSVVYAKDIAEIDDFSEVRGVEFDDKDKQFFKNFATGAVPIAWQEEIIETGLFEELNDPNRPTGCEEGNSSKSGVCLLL

[5] = target: T5, NMU2 (Homo sapiens, UniProt Q9GZQ4); test: GPCR Profiler; type: cell-based
T5 construct: host or cells: Chem-1 cells expressing Gα15
T5 sequence (Q9GZQ4 whole entry, species assumed): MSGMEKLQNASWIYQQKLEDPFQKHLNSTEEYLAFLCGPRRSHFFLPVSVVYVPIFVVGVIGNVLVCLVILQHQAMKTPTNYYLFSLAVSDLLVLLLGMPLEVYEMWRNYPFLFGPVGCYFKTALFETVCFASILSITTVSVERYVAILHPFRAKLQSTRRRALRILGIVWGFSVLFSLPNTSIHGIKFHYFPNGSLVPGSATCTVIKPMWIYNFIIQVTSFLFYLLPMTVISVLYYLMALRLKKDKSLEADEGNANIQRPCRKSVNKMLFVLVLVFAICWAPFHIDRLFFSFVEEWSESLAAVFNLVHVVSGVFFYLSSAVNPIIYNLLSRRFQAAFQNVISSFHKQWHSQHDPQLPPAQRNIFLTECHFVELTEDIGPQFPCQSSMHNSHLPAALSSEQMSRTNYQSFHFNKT

[6] = target: T6, M3 (Homo sapiens, UniProt P20309); test: GPCR Profiler; type: cell-based
T6 construct: host or cells: Chem-1 cells with promiscuous Gα15
T6 sequence (P20309 whole entry): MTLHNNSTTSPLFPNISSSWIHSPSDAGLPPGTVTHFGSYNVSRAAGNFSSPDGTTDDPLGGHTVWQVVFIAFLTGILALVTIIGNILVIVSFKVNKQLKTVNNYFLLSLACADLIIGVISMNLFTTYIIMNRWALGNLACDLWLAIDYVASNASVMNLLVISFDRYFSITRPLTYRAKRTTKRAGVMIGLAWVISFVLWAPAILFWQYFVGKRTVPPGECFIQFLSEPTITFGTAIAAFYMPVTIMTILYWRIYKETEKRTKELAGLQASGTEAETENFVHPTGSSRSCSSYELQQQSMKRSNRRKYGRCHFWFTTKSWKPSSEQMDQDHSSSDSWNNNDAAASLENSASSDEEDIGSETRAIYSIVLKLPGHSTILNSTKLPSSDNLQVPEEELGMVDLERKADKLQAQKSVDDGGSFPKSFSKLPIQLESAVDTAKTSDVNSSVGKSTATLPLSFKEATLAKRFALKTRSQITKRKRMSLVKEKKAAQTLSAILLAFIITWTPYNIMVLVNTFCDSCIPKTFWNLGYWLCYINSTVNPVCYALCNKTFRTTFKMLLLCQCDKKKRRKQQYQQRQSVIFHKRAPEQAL

[7] = target: T7, MrgD (Homo sapiens, UniProt Q8TDS7); test: GPCR Profiler; type: cell-based
T7 construct: host or cells: Chem-1 cells expressing Gα15
T7 sequence (Q8TDS7 whole entry, species assumed): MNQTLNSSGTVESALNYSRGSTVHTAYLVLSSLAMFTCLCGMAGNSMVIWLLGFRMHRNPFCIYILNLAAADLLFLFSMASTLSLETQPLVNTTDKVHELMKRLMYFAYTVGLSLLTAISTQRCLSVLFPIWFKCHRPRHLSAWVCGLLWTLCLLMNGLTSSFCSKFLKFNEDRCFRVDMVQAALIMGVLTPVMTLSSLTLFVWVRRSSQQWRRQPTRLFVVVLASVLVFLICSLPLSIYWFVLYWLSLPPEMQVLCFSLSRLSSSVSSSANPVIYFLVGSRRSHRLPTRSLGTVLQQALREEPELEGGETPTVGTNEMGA

[8] = target: T8, ERK8 (Homo sapiens, UniProt Q8TD08); test: KinomeScan; type: binding; settings: read-out: % Control
T8 construct: purchased DiscoveRx (Fremont, CA)

[9] = target: T9, FYN (Homo sapiens, UniProt P06241); test: KinomeScan; type: binding; settings: read-out: % Control
T9 construct: purchased DiscoveRx (Fremont, CA)
T9 sequence (P06241 whole entry): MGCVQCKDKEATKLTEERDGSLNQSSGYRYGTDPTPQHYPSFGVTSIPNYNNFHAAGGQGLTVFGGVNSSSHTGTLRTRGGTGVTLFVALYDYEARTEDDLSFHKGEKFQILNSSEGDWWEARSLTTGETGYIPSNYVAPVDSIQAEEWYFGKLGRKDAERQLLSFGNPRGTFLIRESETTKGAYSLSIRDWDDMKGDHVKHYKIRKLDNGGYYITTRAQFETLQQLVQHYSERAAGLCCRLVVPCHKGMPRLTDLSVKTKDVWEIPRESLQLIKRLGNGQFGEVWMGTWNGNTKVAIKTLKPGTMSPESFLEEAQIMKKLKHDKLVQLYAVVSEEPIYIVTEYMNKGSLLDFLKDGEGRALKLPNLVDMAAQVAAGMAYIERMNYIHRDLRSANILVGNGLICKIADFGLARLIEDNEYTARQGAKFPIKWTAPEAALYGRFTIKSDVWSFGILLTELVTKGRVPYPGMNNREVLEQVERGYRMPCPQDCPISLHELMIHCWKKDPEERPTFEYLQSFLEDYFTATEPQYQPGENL

[10] = target: T10, FLT3(R834Q) (Homo sapiens, UniProt P36888, R834Q); test: KinomeScan; type: binding; settings: read-out: % Control
T10 construct: purchased DiscoveRx (Fremont, CA)

[11] = target: CDKL3 (Homo sapiens, UniProt Q8IVW4); test: KinomeScan; type: binding; settings: read-out: % Control
[12] = target: T11, AURKC (Homo sapiens, UniProt Q9UQB9); test: KinomeScan; type: binding; settings: read-out: % Control
T11 construct: purchased DiscoveRx (Fremont, CA)
T11 sequence (Q9UQB9 whole entry): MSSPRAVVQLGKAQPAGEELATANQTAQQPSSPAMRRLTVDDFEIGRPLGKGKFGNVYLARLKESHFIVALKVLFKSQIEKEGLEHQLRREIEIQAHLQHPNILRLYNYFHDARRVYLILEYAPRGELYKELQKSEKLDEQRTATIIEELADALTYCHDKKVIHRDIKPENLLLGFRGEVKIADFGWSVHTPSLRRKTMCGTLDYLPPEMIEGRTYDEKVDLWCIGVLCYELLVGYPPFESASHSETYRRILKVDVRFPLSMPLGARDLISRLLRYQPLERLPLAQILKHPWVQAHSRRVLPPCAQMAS

[13] = target: T12, CCK1 (Homo sapiens, UniProt P32238); test: GPCR Profiler; type: cell-based
T12 construct: host or cells: Chem-1 cells with promiscuous Gα15
T12 sequence (P32238 whole entry): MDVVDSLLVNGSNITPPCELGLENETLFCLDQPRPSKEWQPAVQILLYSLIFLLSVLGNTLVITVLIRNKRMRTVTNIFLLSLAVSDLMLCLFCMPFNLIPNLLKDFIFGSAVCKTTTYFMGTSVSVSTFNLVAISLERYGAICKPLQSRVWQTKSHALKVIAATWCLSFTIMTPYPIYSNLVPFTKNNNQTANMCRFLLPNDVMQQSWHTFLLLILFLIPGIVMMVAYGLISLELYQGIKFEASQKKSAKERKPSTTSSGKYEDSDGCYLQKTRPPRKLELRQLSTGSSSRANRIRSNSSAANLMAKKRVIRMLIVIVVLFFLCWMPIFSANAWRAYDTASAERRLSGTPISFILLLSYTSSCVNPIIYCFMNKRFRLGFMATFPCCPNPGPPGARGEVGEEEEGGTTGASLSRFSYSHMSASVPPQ

[14] = target: T13, MET(M1250T) (Homo sapiens, UniProt P08581, M1250T); test: KinomeScan; type: binding; settings: read-out: % Control
T13 construct: purchased DiscoveRx (Fremont, CA)

[15] = target: CSF1R (Homo sapiens, UniProt P07333); test: KinomeScan; type: binding; settings: read-out: % Control
[16] = target: T14, ERBB3 (Homo sapiens, UniProt P21860); test: KinomeScan; type: binding; settings: read-out: % Control
T14 construct: purchased DiscoveRx (Fremont, CA)

[17] = target: T15, PKAC-alpha (Homo sapiens, UniProt P17612); test: KinomeScan; type: binding; settings: read-out: % Control
T15 construct: purchased DiscoveRx (Fremont, CA)

[18] = target: T16, TGFBR2 (Homo sapiens, UniProt P37173); test: KinomeScan; type: binding; settings: read-out: % Control
T16 construct: purchased DiscoveRx (Fremont, CA)
T16 sequence (P37173 23-567): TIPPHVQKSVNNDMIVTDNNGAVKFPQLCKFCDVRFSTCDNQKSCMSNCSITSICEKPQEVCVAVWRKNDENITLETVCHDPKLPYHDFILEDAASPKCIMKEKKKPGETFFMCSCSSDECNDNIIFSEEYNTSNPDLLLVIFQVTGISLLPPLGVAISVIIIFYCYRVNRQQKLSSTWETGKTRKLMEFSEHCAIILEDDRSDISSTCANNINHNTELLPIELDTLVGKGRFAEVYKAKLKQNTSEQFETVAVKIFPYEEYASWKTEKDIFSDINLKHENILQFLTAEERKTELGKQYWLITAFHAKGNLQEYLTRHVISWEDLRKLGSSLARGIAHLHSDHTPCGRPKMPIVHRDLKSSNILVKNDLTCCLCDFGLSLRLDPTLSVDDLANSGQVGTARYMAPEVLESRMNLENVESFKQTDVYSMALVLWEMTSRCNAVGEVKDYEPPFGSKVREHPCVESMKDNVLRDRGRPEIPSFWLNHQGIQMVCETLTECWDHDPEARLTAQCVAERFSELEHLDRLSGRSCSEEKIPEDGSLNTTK

[19] = test system: T-47D; test: Cell Titer-Glo viability, Breast cancer; type: cell-based
Method: (§1) OGM2 kills wide variety of cancer cell types. Cell sensitivity can be classified in to Very Sensitive (LC50<2 μM), Sensitive (LC50=2 to 10 μM), Mildly Sensitive (LC50>10 μM), and Refractory (no killing at 10 μM). The listed established cell were incubated with OGM2 at 2 μM or 10 μM for 72 hours under standard cell culture conditions, and relative cell number was assessed using Cell Titer-Glo Luminescent Cell Viability Assay (Promega™) following the manufacturer's instructions. Luminescence was determined using a Cytation 5 reader and Gen5 software package (BioTek™).
(§2) Cancer cells, which are very sensitive to killing by OGM2 (LCs <2 μM), with reported mRNA expression of GPR68 and the related proton sensing receptor GPR4. LC50's (concentrations causing 50% lethality) were determined using CellTiter-Glo (Promega™, G7570). Cells were plated in 12-well plates (CELLTREAT Scientific Products, 229112) in 1 ml of DMEM with high glucose, GlutaMAX, HEPES, or RPMI 1640 with Penicillin-Streptomycin (ThermoFisher™, 10564029, 11875119 and 15140122) and 10% FBS. Cells were incubated overnight at 37° C. in 5% CO2. Then 1 mL of fresh media was added with DMSO, OGM, or positive control (Erastin; APExBIO Technology, LLC, B1524) and cells incubated for 3 days. On the third day, all media was removed, cells were rinsed with 1×PBS, PBS was removed, and 200 μL of 1× Passive Lysis Buffer (Promega™, E1941) was added to each well. […]. Subsequently, 20 μL of lysate was added to 100 μL CellTiter-Glo™ reagent on a LUMITRAC 200 plate (Greiner™ bio-one, 82050-726). Plates were briefly spun down and read on a GloMax-Multi Detection System (Promega™).
(§3) The cells listed in the tables above were incubated with OGM2 at 2 μM or 10 μM for 72 hours under standard cell culture conditions, and relative cell number was assessed using Cell Titer-Glo Luminescent Cell Viability Assay (Promega™) following the manufacturer's instructions. Luminescence was determined using a Cytation 5 reader and Gen5 software package (BioTek™). RNA expression of GPR68 and GPR4 in the corresponding cancer cell lines are listed, according to the publicly available The Human Protein Atlas version 22.0 and Ensembl version 103.38 (see proteinatlas.org). The consensus normalized expression value (“nTPM”=normalize transcript per million) was calculated as the maximum nTPM value for each gene in the two data sources.

[20] = test system: U-87 MG; test: Cell Titer-Glo viability, Glioblastoma; type: cell-based; settings: 72 hours
Method: as §1, §2, §3

[21] = test system: GL261Luc; test: Cell Titer-Glo viability, Glioblastoma; type: cell-based
Method: as §1, §2, §3

[22] = test system: KR-158-luc; test: Cell Titer-Glo viability, Glioblastoma; type: cell-based
Method: as §1, §2, §3

[23] = test system: U-138 MG; test: Cell Titer-Glo viability, Glioblastoma; type: cell-based; settings: 72 hours
Method: as §1, §2, §3

T1 sequence (P50406 whole entry, species assumed): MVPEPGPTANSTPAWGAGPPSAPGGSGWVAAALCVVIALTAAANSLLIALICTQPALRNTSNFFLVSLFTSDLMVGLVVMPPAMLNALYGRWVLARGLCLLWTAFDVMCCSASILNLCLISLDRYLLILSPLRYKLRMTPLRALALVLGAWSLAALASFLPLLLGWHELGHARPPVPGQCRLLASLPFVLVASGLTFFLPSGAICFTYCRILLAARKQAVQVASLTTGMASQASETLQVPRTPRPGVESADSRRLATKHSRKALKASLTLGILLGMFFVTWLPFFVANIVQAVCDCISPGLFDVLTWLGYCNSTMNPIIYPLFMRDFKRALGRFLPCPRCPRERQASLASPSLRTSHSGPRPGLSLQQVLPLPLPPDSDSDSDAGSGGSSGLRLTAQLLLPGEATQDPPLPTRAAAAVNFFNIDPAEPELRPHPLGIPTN
T2 sequence (Q02750 whole entry): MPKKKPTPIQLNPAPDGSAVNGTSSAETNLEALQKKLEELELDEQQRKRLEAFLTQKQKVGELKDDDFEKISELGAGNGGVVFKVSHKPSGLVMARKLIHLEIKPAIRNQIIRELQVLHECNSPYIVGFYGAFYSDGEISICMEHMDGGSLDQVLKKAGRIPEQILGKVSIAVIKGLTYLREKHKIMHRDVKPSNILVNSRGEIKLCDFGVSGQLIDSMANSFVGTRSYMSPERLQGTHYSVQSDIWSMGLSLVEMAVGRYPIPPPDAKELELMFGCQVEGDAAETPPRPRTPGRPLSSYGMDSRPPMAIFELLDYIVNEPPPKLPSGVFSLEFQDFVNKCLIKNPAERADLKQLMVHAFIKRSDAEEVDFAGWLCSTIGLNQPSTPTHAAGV

## CCc1ccc2c(c1)C1(NN=C(c3cccc4ccccc34)S1)C(=O)N2 (centres unmarked) [OGM1, 5-ethyl-5′-naphthalen-1-ylspiro[1H-indole-3,2′-3H-1,3,4-thiadiazole]-2-one]
[1]; 10 uM
  Antagonism: −4.4
[1]; 12.5 uM
  Agonism: −0.7
[2]
  remaining binding at 10 µM: 84%
[3]
  remaining binding at 10 µM: 100%
[4]
  remaining binding at 10 µM: 73%
[5]; 10 uM
  Antagonism: −4.2
[5]; 12.5 uM
  Agonism: 0
[6]; 10 uM
  Antagonism: −1.9
[6]; 12.5 uM
  Agonism: 0.7
[7]; 10 uM
  Antagonism: −2.2
[7]; 12.5 uM
  Agonism: −0.1
[8]
  remaining binding at 10 µM: 100%
[9]
  remaining binding at 10 µM: 100%
[10]
  remaining binding at 10 µM: 100%
[11]
  remaining binding at 10 µM: 100%
[12]
  remaining binding at 10 µM: 100%
[13]; 10 uM
  Antagonism: 1.9
[13]; 12.5 uM
  Agonism: 0.8
[14]
  remaining binding at 10 µM: 68%
[15]
  remaining binding at 10 µM: 78%
[16]
  remaining binding at 10 µM: 84%
[17]
  remaining binding at 10 µM: 95%
[18]
  remaining binding at 10 µM: 100%

## CCc1ccc2c(c1)C1(NN=C(c3ccccc3)S1)C(=O)N2 (centres unmarked) [OGM2]
[19]
  Class: Mildly
[19]; 72 hours
  % Survival 2 μM OGM: 76.4%
  % Survival 10 μM OGM: 61.7%
[19]; Homo sapiens, T47D, 72 hours, read-out: LC50 (the source's name)
  CC50: > 10000 nM
[20]
  % Survival 2 μM OGM: 21.3%
  % Survival 10 μM OGM: 10.1%
[20]; Homo sapiens, U-87 MG, read-out: LC50 (the source's name)
  CC50: < 2000 nM
[21]
  Class: Very Sensitive (Very Sensitive (LC50<2 μM))
[21]; 72 hours
  % Survival 2 μM OGM: 1.8%
  % Survival 10 μM OGM: 0.1%
[21]; Mus musculus, GL261-Luc, 72 hours, read-out: LC50 (the source's name)
  CC50: < 2000 nM
[22]
  Class: Very Sensitive (Very Sensitive (LC50<2 μM))
[22]; 72 hours
  % Survival 2 μM OGM: 11.4%
  % Survival 10 μM OGM: 4.7%
[22]; Mus musculus, 72 hours, read-out: LC50 (the source's name)
  CC50: < 2000 nM
[23]
  % Survival 2 μM OGM: 40.3%
  % Survival 10 μM OGM: 35.0%
[23]; Homo sapiens, U138-MG, read-out: LC50 (the source's name)
  CC50: < 2000 nM

Reference: patent publication US20240327364A1, “THERAPEUTIC TARGETING OF GPR68 TO INDUCE FERROPTOSIS” (University Of Maryland, Baltimore, priority 2023, published 2024)
